Test results taken from patent publication US6455587B1 (priority 2000, dated 2002).

biological target: T1, recombinant HIV-1 protease (Human immunodeficiency virus type 1 group M subtype B, UniProt P04585); test: Enzymatic fluorometric (FRET) assay for determining the inhibition constant (Ki) against HIV protease; format: biochemical; settings: Ki (nM)
T1 construct: recombinant HIV-1 protease (final concentration 2.18 nM) purchased from Bachem Bioscience; purchased Bachem Bioscience
Excerpt: An Enzymatic assay for determining the inhibition constant (Ki) of synthetic compounds targeting the HIV protease may be carried out as follows: This is a fluorometric assay based on the cleavage by protease of a substrate carrying a donor group (EDANS) and an acceptor group (DABCYL) on each side of the cleavage site, interacting together through fluorescence resonance energy transfer (FRET). Cleavage of the substrate by protease stops energy exchange between the two groups, resulting in a time-dependent increase in fluorescence intensity that is linearly related to the extent of substrate hydrolysis.
The enzymatic assay is done at 31° C. in white 96-well fluorescence microplates, in a total volume of 200 μL per well. The apparatus used for analysis is a FL600 fluorescence microplate reader (Biotek Instruments). […] Excitation of the fluorophore is done at 340 nm and emission at 485 nm is recorded continuously during the reaction, allowing determination of the enzyme's initial velocity (v0). At the end of the 4 min incubation, the potential inhibitor at a defined concentration in a volume of 4 μL is added to the reaction, and fluorescence readings are taken for another 4 min, allowing determination of enzyme velocity (vi) in the presence of the inhibitory compound. Several concentrations of the putative inhibitors are tested in the assay. After calculation of v0 and vi, the inhibition constant (Ki) of the compound is determined using the equation of Henderson: [formula]
and [I]=inhibitor concentration, [S]=substrate concentration,
Km=Michaelis-Menten constant, Kiapp=apparent Ki
Graphs are traced and the Ki determined using GraphPad Prism software v. 3.0.

Row | Compound | Ki
1 | CC(C)(C)OC(=O)N[C@@H](CCCCNC(=O)OCC1c2ccccc2-c2ccccc21)C(=O)O [Compound 138] | > 200 nM

same assay, conditions: Ki (nM), fluorometric FRET assay, recombinant HIV-1 protease, pH 4.7, 31° C.

Row | Compound | Ki
2 | CC(C)CN([C@@H](CCCCNC(=O)C=Cc1cccc([N+](=O)[O-])c1)C(=O)O)S(=O)(=O)c1ccc([N+](=O)[O-])cc1 [Compound 108, Nα-Isobutyl-Nα-(4-nitrobenzenesulfonyl)-Nε-(3-nitrocinnamoyl)-L-lysine] | > 300 nM
3 | CC(C)CN([C@@H](CCCCNC(=O)C=Cc1ccccc1[N+](=O)[O-])C(=O)O)S(=O)(=O)c1ccc([N+](=O)[O-])cc1 [Compound 109, Nα-Isobutyl-Nα-(4-nitrobenzenesulfonyl)-Nε-(2-nitrocinnamoyl)-L-lysine] | > 300 nM
4 | CC(C)CN([C@@H](CCCCNC(=O)C=Cc1ccc([N+](=O)[O-])cc1)C(=O)O)S(=O)(=O)c1ccc([N+](=O)[O-])cc1 [Compound 111, Nα-Isobutyl-Nα-(4-nitrobenzenesulfonyl)-Nε-(4-nitrocinnamoyl)-L-lysine] | 34.4 nM
5 | CC(C)CN([C@@H](CCCCNS(=O)(=O)c1ccc([N+](=O)[O-])cc1)C(=O)O)S(=O)(=O)c1ccc([N+](=O)[O-])cc1 [Compound 116, Nα-Isobutyl-Nα,Nε-di-(4-nitrobenzenesulfonyl)-L-lysine] | > 300 nM

same assay, conditions: fluorometric FRET assay, recombinant HIV-1 protease, pH 4.7, 31° C.; read-out: Ki

Row | Compound | Ki
6 | Cc1ccc(S(=O)(=O)N(CC(C)C)[C@@H](CCCCNC(=O)C(c2ccccc2)c2ccccc2)C(=O)O)cc1 [Compound 86] | 171 nM
7 | Cc1ccc(S(=O)(=O)N(CC(C)C)[C@@H](CCCCNC(=O)c2c[nH]c3ccccc23)C(=O)O)cc1 [Compound 87] | > 1250 nM
8 | Cc1ccc(S(=O)(=O)N(CC(C)C)C(CCCCNC(=O)c2cc3ccccc3[nH]2)C(=O)O)cc1 (stereo not shown) [Compound 88] | > 625 nM
9 | Cc1ccc(S(=O)(=O)N(CC(C)C)[C@@H](CCCCNC(=O)CCc2c[nH]c3ccccc23)C(=O)O)cc1 [Compound 89] | 6.9 nM
10 | Cc1ccc(S(=O)(=O)N(CC(C)C)[C@@H](CCCCNC(=O)/C=C/c2ccccc2)C(=O)O)cc1 [Compound 90] | 747 nM
11 | Cc1ccc(S(=O)(=O)N(CC(C)C)[C@@H](CCCCNC(=O)CCc2ccccc2)C(=O)O)cc1 [Compound 91] | 8 nM
12 | CC(C)CN([C@@H](CCCCNC(=O)CCc1ccccc1)C(=O)O)S(=O)(=O)c1ccc([N+](=O)[O-])cc1 [Compound 94, Nα-Isobutyl-Nα-(4-nitrobenzenesulfonyl)-Nε-dihydrocinnamoyl-L-lysine] | 33.9 nM
13 | CC(C)CN([C@@H](CCCCNC(=O)CCc1c[nH]c2ccccc12)C(=O)O)S(=O)(=O)c1ccc([N+](=O)[O-])cc1 [Compound 95, Nα-Isobutyl-Nα-(4-nitrobenzenesulfonyl)-Nε-(3-indolepropionyl)-L-lysine] | 33.4 nM
14 | CC(C)CN([C@@H](CCCCNC(=O)C1c2ccccc2Oc2ccccc21)C(=O)O)S(=O)(=O)c1ccc([N+](=O)[O-])cc1 [Compound 96, Nα-Isobutyl-Nα-(4-nitrobenzenesulfonyl)-Nε-(9-xanthenecarbonyl)-L-lysine] | 43.9 nM
15 | CC(C)CN([C@@H](CCCCNC(=O)CCc1c[nH]c2ccccc12)C(=O)O)S(=O)(=O)c1ccc(N)cc1 [Compound 98, Nα-Isobutyl-Nα-(4-aminobenzenesulfonyl)-Nε-(3-indolepropionyl)-L-lysine] | 10.1 nM
16 | O=C(NCCCC[C@H](NS(=O)(=O)c1cccc2ccccc12)C(=O)O)OCC1c2ccccc2-c2ccccc21 [Compound 102, Nα-(1-Naphthalenesulfonyl)-Nε-(9-fluorenylmethoxycarbonyl)-L-lysine] | 2320 nM
17 | O=C(NCCCC[C@H](NS(=O)(=O)c1ccc([N+](=O)[O-])cc1)C(=O)O)OCC1c2ccccc2-c2ccccc21 [Compound 103, Nα-(4-Nitrobenzenesulfonyl)-Nε-(9-fluorenylmethoxycarbonyl)-L-lysine] | 3300 nM
18 | COc1ccc(S(=O)(=O)N[C@@H](CCCCNC(=O)OCC2c3ccccc3-c3ccccc32)C(=O)O)cc1 [Compound 104, Nα-(4-Methoxylbenzenesulfonyl)-Nε-(9-fluorenylmethoxycarbonyl)-L-lysine] | 3160 nM
19 | Nc1ccccc1S(=O)(=O)N[C@@H](CCCCNC(=O)OCC1c2ccccc2-c2ccccc21)C(=O)O [Compound 105, Nα-(2-Aminobenzenesulfonyl)-Nε-(9-fluorenylmethoxycarbonyl)-L-lysine] | 16000 nM
20 | Nc1ccc(S(=O)(=O)N[C@@H](CCCCNC(=O)OCC2c3ccccc3-c3ccccc32)C(=O)O)cc1 [Compound 106, Nα-(4-Aminobenzenesulfonyl)-Nε-(9-fluorenylmethoxycarbonyl)-L-lysine] | 4490 nM
21 | O=C(NCCCC[C@H](NS(=O)(=O)c1ccccc1[N+](=O)[O-])C(=O)O)OCC1c2ccccc2-c2ccccc21 [Compound 107, Nα-(2-Nitrobenzenesulfonyl)-Nε-(9-fluorenylmethoxycarbonyl)-L-lysine] | 3970 nM

Row | Compound | Ki
22 | COc1cccc(C=CC(=O)NCCCC[C@@H](C(=O)O)N(CC(C)C)S(=O)(=O)c2ccc([N+](=O)[O-])cc2)c1OC [Compound 110, Nα-Isobutyl-Nα-(4-nitrobenzenesulfonyl)-Nε-(2,3-dimethoxycinnamoyl)-L-lysine] | > 300 nM
23 | COc1ccc(C=CC(=O)NCCCC[C@@H](C(=O)O)N(CC(C)C)S(=O)(=O)c2ccc([N+](=O)[O-])cc2)cc1 [Compound 113, Nα-Isobutyl-Nα-(4-nitrobenzenesulfonyl)-Nε-(4-methoxycinnamoyl)-L-lysine] | > 300 nM
24 | CC(C)CN([C@@H](CCCCNS(=O)(=O)Cc1ccccc1)C(=O)O)S(=O)(=O)c1ccc([N+](=O)[O-])cc1 [Compound 115, Nα-Isobutyl-Nα-(4-nitrobenzenesulfonyl)-Nε-benzylsulfonyl-L-lysine] | > 300 nM
25 | CC(C)CN([C@@H](CCCCNC(=O)CCc1cccc(N)c1)C(=O)O)S(=O)(=O)c1ccc(N)cc1 [Compound 118, Nα-Isobutyl-Nα-(4-aminobenzenesulfonyl)-Nε-(3-aminodihydrocinnamoyl)-L-lysine] | 20.5 nM
26 | COc1cccc(CCC(=O)NCCCC[C@@H](C(=O)O)N(CC(C)C)S(=O)(=O)c2ccc(N)cc2)c1OC [Compound 119, Nα-Isobutyl-Nα-(4-aminobenzenesulfonyl)-Nε-(2,3-dimethoxydihydrocinnamoyl)-L-lysine] | 6.2 nM
27 | COc1ccc(CCC(=O)NCCCC[C@@H](C(=O)O)N(CC(C)C)S(=O)(=O)c2ccc(N)cc2)cc1 [Compound 120, Nα-Isobutyl-Nα-(4-aminobenzenesulfonyl)-Nε-(4-methoxydihydrocinnamoyl)-L-lysine] | 12.4 nM
28 | CC(C)CN([C@@H](CCCCNC(=O)CCCc1ccccc1)C(=O)O)S(=O)(=O)c1ccc(N)cc1 [Compound 121, Nα-Isobutyl-Nα-(4-aminobenzenesulfonyl)-Nε-(4-phenylbutanoyl)-L-lysine] | > 300 nM
29 | CC(C)CN([C@@H](CCCCNC(=O)CCc1ccccc1N)C(=O)O)S(=O)(=O)c1ccc(N)cc1 [Compound 122, Nα-Isobutyl-Nα-(4-aminobenzenesulfonyl)-Nε-(2-aminodihydrocinnamoyl)-L-lysine] | > 300 nM
30 | COC(=O)[C@H](CCCCNC(=O)OCC1c2ccccc2-c2ccccc21)N(CC(C)C)S(=O)(=O)c1ccc(C)cc1 [Compound 123, Nα-Isobutyl-Nα-(4-methylbenzenesulfonyl)-Nε-(9-fluorenylmethoxycarbonyl)-L-lysine Methyl Ester] | > 300 nM
31 | Cc1ccc(S(=O)(=O)N(CC(C)C)[C@@H](CO)CCCCNC(=O)OCC2c3ccccc3-c3ccccc32)cc1 [Compound 124, (2R)-N-Isobutyl-N-(4-methylbenzenesulfonylamino)-6-(9-fluorenylmethoxycarboxylamino)-1-hexanol] | 208 nM
32 | Cc1ccc(S(=O)(=O)N(CC(C)C)C(CCCCNC(=O)OCC2c3ccccc3-c3ccccc32)C(N)=O)cc1 [Compound 125, (2R,2S)-N-Isobutyl-N-(4-methylbenzenesulfonylamino)-6-(9-fluorenylmethoxycarboxylamino)-1-hexanamide] | 107 nM
33 | Cc1ccc(S(=O)(=O)N(CC(C)C)[C@@H](CCCCNC(=O)CCc2ccc(O)cc2)C(=O)O)cc1 [Compound 126, Nα-Isobutyl-Nα-(4-methylbenzenesulfonyl)-Nε-(4-hydroxydihydrocinnamoyl)-L-lysine] | > 300 nM
34 | CC(C)(C)OC(=O)N[C@@H](CCCNC(=O)OCc1ccccc1)C(=O)O [Compound 137] | > 200000 nM
35 | Cc1ccc(S(=O)(=O)N(CC(C)C)C(CCCCNC(=O)OCC2c3ccccc3-c3ccccc32)C(=O)NO)cc1 [Compound 141, (2R,2S)-N-Isobutyl-N-(4-methylbenzenesulfonylamino)-6-(9-fluorenylmethoxycarboxylamino)-1-hydroxylhexamide] | 245 nM
36 | CC(C)(C)OC(=O)N[C@@H](CCCCNS(=O)(=O)c1ccc(Br)cc1)C(=O)O [Compound 143] | 660000 nM
37 | Cc1ccc(S(=O)(=O)NCCC[C@H](NC(=O)OCC2c3ccccc3-c3ccccc32)C(=O)O)cc1 [Compound 149, Nδ-(4-Methylbenzenesulfonyl)-Nα-(9-fluorenylmethoxycarbonyl)-L-ornithine] | 10100 nM
